Source: patent US20230381196A1, “COMPOSITIONS COMPRISING BISFLUOROALKYL-1,4-BENZODIAZEPINONE COMPOUNDS FOR TREATING ADENOID CYSTIC CARCINOMA” (AYALA PHARMACEUTICALS INC., priority 2020, published 2023)

Tests used:
Notch3 = test: Inhibition of Constitutive Notch Signaling; assay type: cell-based
[1] = system: recurrent or metastatic ACC with Notch-activating mutations; test: Phase 2 trial of Compound (1) in ACC with Notch-activating mutations: response; assay type: in vivo, human; details: 4 mg IV once weekly
Excerpt: FIG. 1. Schema and Baseline Characteristics. Subjects enrolled in the Phase 2 Clinical Trial had (1) Recurrent/metastatic (R/M) adenoid cystic carcinoma (ACC); (2) Notch-activating mutations; (3) Disease progression within prior 6 months, and (4) Eastern Cooperative Oncology Group (ECOG) score <2 (Fully active; no performance restrictions. 1. Strenuous physical activity restricted; fully ambulatory and able to carry out light work. 2. Capable of all self-care but unable to carry out any work activities). Cohort 1 was administered Compound (1) QW at a dose of 4 mg (n=45), and Cohort 2 will be administered Compound (1) QW at a dose of 6 mg (n=42). The primary endpoint is ORR per RECIST v1.1 or modified MDA Bone Response Criteria, by Investigator. Secondary endpoints include Duration of Response (DoR), Progression-Free Survival (PFS), Overall Survival (OS), Safety, and PharmacoKinetics (PKs). The study was conducted in North America, Europe and Israel. aData cutoff: Jul. 30, 2020. ^bSubjects may select more than one category. MDA, M D Anderson.
FIG. 2. Best Overall Responses by Investigator Review (n=40)^a. Subjects were administered 4 mg Compound (1) once per week. The percent change in the tumor diameter is presented for individual subjects. Subjects with Partial Response (PR) are marked in yellow; Stable disease (SD) in dark blue; Progressive Disease (PD) in gray; and Not Evaluable (NE) in black. *confirmed responses.
A Phase 2, Simon 2-Stage optimal design, non-comparative, open-label, single-arm, multicenter study of Compound (1) was conducted in subjects with recurrent or metastatic (RIM) ACC (bone-exclusive disease allowed) who harbor Notchl, Notch2, Notch3, or Notch4 activating mutations (Notch1-4′ nn. Subjects with disease progression ≤6 months of enrollment or newly diagnosed metastatic disease were allowed.
Subjects with known activating Notch mutations, per NGS test results gave their informed consent and underwent screening assessments to determine study eligibility over a 28-day screening period. Available mutation status from prior tests with any commercially available or locally developed NGS assay were acceptable. Any newly characterized mutation (such as tandem duplication, variant allele frequency etc.), was evaluated with the sponsor on a case-by-case basis.
Starting on Cycle 1, Day 1, eligible subjects enrolled in the study received Compound (1), 4 mg intravenously (IV) weekly (qwk), on Days 1, 8, 15, and 22 of each 28-day cycle until disease progression, unacceptable toxicity, or consent withdrawal. Paired tumor biopsies were collected at screening (fresh or archival within 5 years) and upon confirmation of disease progression (provided medically safe and not contraindicated). Samples were sent to a central vendor for NGS analysis. Formalin-fixed paraffin embedded (FFPE) slides were evaluated by IHC for NICDI stain.
During the treatment period, subjects underwent radiographic assessments every 8 weeks (±3 days) for review by Independent Central Review (ICR) as well as by the Investigator. Other assessments performed included safety exploratory biomarkers.
Compound (1) is a potent and selective inhibitor of gamma secretase-mediated Notch signaling. Compound (1) was administered IV at the dose of 4 mg every 7 days (1 day; QW) over 28-day cycles until disease progression, unacceptable toxicity, or consent withdrawal. Compound (1) injection was developed as a single-use sterile solution (1.2 mg/mL; […]) for IV administration in clinical studies; each vial contained 5 mL (equivalent of 6 mg per vial). It was formulated as a sterile concentrate containing Cremophor and ethanol and was diluted with 0.9% Sodium Chloride injection, USP (normal saline) or 5% Dextrose Injection, USP (D5W) to concentrations between 0.01 mg/mL and 0.06 mg/mL. […]

Notch4 = test: Inhibition of Constitutive Notch Signaling; assay type: cell-based
[2] = Intravenous versus oral pharmacokinetics in tumor-free mice; assay type: in vivo; details: 1 mg/kg (minimum effective dose), data not shown
Method: Methods: Intravenous and oral administration of Compound (1) at minimum effective dose (1 mg/kg) was first examined to determine preferred mode of administration and plasma total free active drug concentration was measured.

[3] = system: NOTCH signaling (NICD1, HES1, HESS, HEY1) in ACC112 cells; test: NICD1 and NOTCH downstream targets by IHC and western blot; assay type: cell-based, Human; details: 10 nM
Method: (§1) FIG. 10B. Effect of Compound (1) monotherapy on NICD1 in ACC cell lines. NICD1 immunohistochemical staining of ACC83 (left) or ACC112 (right) cells treated with either 10 nM Compound (1) or DMSO (control) for 14 days.
(§2) FIG. 10C. Effect of Compound (1) monotherapy on NOTCH downstream targets in ACC cell lines. Cell lysates were collected at day 14 from Compound (1)- or DMSO (control)-treated ACC83 and ACC112 cells and analyzed by western blot for the expression of NICD1, HES1, HESS and HEY1 proteins, with GAPDH used a loading control.
(§3) Methods: The naturally immortalized sublingual gland derived Human ACC cell line ACC83 and the Human HPV-transformed submaxillary gland derived cell line ACC112 were treated with Compound (1) at 10 nM concentration or DMSO (control) for 14 days. ACC83 cells were cultured in RPMI 1640 medium supplemented with 10% FBS, 10,000 u/ml penicillin-streptomycin and 1 ml L-glutamine. ACC112 cell line was additionally supplemented with 20 ng/ml epidermal growth factor, 400 ng/ml hydrocortisone and 5 μg/ml insulin. Cell viability relative to day 0 was determined using an Alamar Blue assay on days 7, 11 and 14. Cell lines were stained with NICD1 (Cell Signaling, 4147S, 1:200), HES1 (Abcam, ab71559, 1:400), HEY1 (Millipore, AB5714, 1:200), and HESS (Novus Biologicals, NBP241305, 1:200) antibodies using iView DAB detection and the Ventana BenchMark XT staining system (Roche). Area and intensity of diaminobenzidine (DAB) signal was quantified using IHC Profiler color deconvolution plugin within ImageJ software.

[4] = system: NOTCH signaling (NICD1, HES1, HESS, HEY1) in ACC83 cells; test: as above; assay type: cell-based, Human; details: 10 nM
Method: as §1, §2, §3

ACC112 cell line = test: Alamar Blue cell viability assay; assay type: cell-based, Human; details: 10 nM, 14 days, vs DMSO
Method: (§4) FIG. 10A. Effect of Compound (1) monotherapy on cell viability in ACC cell lines. ACC83 and ACC112 cell lines were treated with 10 nM Compound (1) or DMSO (control) for 14 days, and cell viability relative to day 0 was determined using an Alamar Blue assay on days 7, 11 and 14. **p<0.01; ***p<0.001.
as §3

ACC83 cell line = test: Alamar Blue cell viability assay; assay type: cell-based, Human; details: 10 nM, 14 days, vs DMSO
Method: as §4, §3

**Q.** With `CN1C(=O)[C@@H](NC(=O)[C@H](CCC(F)(F)F)[C@H](CCC(F)(F)F)C(N)=O)N=C(c2ccccc2)c2ccccc21` [Compound (1), (2R,3S)—N-((3S)-1-methyl-2-oxo-5-phenyl-2,3-dihydro-1H-1,4-benzodiazepin-3-yl)-2,3-bi s(3,3,3-trifluoropropyl)succinamide] as the molecule, how does the IC50 (Notch3) read?
**A.** The IC50 was 3.4 nM.

**Q.** What about the “partial responses achieved by week 16” value [1] of the same molecule?
**A.** The value was 5 out of 6.

**Q.** What about the “subjects in the study for at least 24 weeks or still in the study not yet having reached 24 weeks” value ([1]; 16 out of 40) of the same molecule?
**A.** The value was 40%.

**Q.** And the “Missing/NE, best overall response (unconfirmed)” value ([1]; by investigator, n=40)?
**A.** Its value is 3% (1).

**Q.** What about the “PD, best overall response (unconfirmed)” value ([1]; by investigator, n=40) of the same molecule?
**A.** The value was 30% (12).

**Q.** What about the “PR, best overall response (unconfirmed)” value ([1]; by investigator, n=40) of the same molecule?
**A.** Its value is 15% (6).

**Q.** And the overall response rate ([1]; by investigator, n=40)?
**A.** Its overall response rate is 15%.

**Q.** What about the “radiographic scans, baseline vs beginning of Cycle 3 (Week 8)” value ([1]; 4 subjects who achieved partial response) of the same molecule?
**A.** The value was “tumor shrinkage”.

**Q.** And the IC50 (Notch4)?
**A.** Its IC50 is 2.9 nM.

**Q.** What about the “pharmacokinetic profile, intravenous versus oral administration” value [2] of the same molecule?
**A.** The value was “very similar pharmacokinetic profile”.

**Q.** What about the “NICD1 (Western blotting and IHC)” value ([3]; 14 days, vs DMSO) of the same molecule?
**A.** Its value is “reduction in NICD1”.

**Q.** And the “expression levels of NOTCH downstream targets HES1, HESS and HEY1” value ([3]; day 14, western blot)?
**A.** Its value is “substantially downregulated expression levels”.

**Q.** And the “NICD1 (Western blotting and IHC)” value ([4]; 14 days, vs DMSO)?
**A.** Its value is “reduction in NICD1”.

**Q.** What about the “expression levels of NOTCH downstream targets HES1, HESS and HEY1” value ([4]; day 14, western blot) of the same molecule?
**A.** The value was “substantially downregulated expression levels”.

**Q.** And the “cell growth (cell viability relative to day 0)” value (ACC112 cell line)?
**A.** Its value is “potently inhibited cell growth”.

**Q.** What about the “cell growth (cell viability relative to day 0)” value (ACC83 cell line) of the same molecule?
**A.** Its value is “potently inhibited cell growth”.
